Experimental data as given in PubChem BioAssay (NCI).
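96-well plates; 48 h exposure; 5 concentrations. Endpoints by linear interpolation between flanking doses. Not reached: highest tested concentration assigned. GI50: concentration for 50% inhibition of growth. The concentration for full growth arrest is given as TGI.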

Experiments:
Assay in all cases: NCI tumour cell line growth inhibition, 48 h
A549 NSCLC = system: A549 NSCLC
CCRF-CEM leukemia = system: CCRF-CEM leukemia
U251 CNS = system: U251 CNS
DU-145 prostate = system: DU-145 prostate
T-47D breast = system: T-47D breast
RPMI-8226 leukemia = system: RPMI-8226 leukemia
EKVX NSCLC = system: EKVX NSCLC
COLO 205 colon = system: COLO 205 colon
ACHN renal = system: ACHN renal
HCC-2998 colon = system: HCC-2998 colon

Compound | TGI (A549 NSCLC) [µM] | TGI (CCRF-CEM leukemia) [µM] | TGI (U251 CNS) [µM] | TGI (DU-145 prostate) [µM] | TGI (T-47D breast) [µM] | TGI (RPMI-8226 leukemia) [µM] | TGI (EKVX NSCLC) [µM] | TGI (COLO 205 colon) [µM] | TGI (ACHN renal) [µM] | TGI (HCC-2998 colon) [µM] | GI50 (A549 NSCLC) [µM] | GI50 (CCRF-CEM leukemia) [µM] | GI50 (U251 CNS) [µM] | GI50 (DU-145 prostate) [µM] | GI50 (T-47D breast) [µM] | GI50 (RPMI-8226 leukemia) [µM] | GI50 (EKVX NSCLC) [µM] | GI50 (COLO 205 colon) [µM] | GI50 (ACHN renal) [µM] | GI50 (HCC-2998 colon) [µM]
CC(C)(C)OC(=O)NCC(C#N)CNC(=O)OC(C)(C)C | > 100 | > 100 | > 100 | > 100 | > 100 | > 100 | > 100 | > 100 | > 100 | > 100 |  |  |  |  |  |  |  |  |  | 
CSc1ccc(C2=Nn3c(nnc3-c3ccc(F)c(Cl)c3)SC2)cc1 | 29.7 | > 100 | 13.8 | > 100 | > 100 | > 100 | > 100 | > 100 | 33.6 | > 100 | 12.5 | 11.1 | 3.85 | 34.2 | 71 | 18.6 | 42.1 | 25.9 | 13.7 | 24
CC1=C(C(=O)NC2CCCCC2)CC(C(=O)NC2CCCCC2)=C(C)N1 | > 100 | > 100 | > 100 | > 100 | > 100 | > 100 | > 100 | > 100 | > 100 | > 100 |  |  |  |  |  |  |  |  |  | 
CC1(C)CCC(C)(C)c2cc(C(=O)Nc3ccc(C(=O)O)cc3)ccc21 | > 75.1 | > 80.8 | > 100 | > 73.6 | > 79.4 | 57.7 | > 100 | 36 | > 61.2 | 37.2 |  |  |  |  |  |  |  |  |  | 
COC(=O)c1ccc2c(c1)C(NC(C)=O)CCc1cc(OC)c(OC)c(OC)c1-2 (stereo not given) | > 100 | > 35.6 | 16.5 | 0.0865 | > 100 | > 100 | > 100 | 0.0194 | > 100 | 0.706 |  |  |  |  |  |  |  |  |  | 
C[n+]1cc2c3c(ccc2c2ccc4cc5c(cc4c21)OCO5)OCO3 | 1.15 | 1.15 | 1.28 | 1.96 | 3.13 | 1.88 | 2.65 | 0.778 | 2.09 | 2.92 | 0.322 | 0.217 | 0.331 | 0.726 | 1.42 | 0.365 | 1.33 | 0.255 | 0.788 | 1.47
C=C1C(=O)O[C@@H]2C[C@@]3(C)CC(=O)C=C(C)[C@@H]3C[C@H]12 | > 100 | > 100 | 39.1 | 16.1 | 28.3 | 5.45 | 28.8 | 11.4 | 8.69 | 28.1 |  |  |  |  |  |  |  |  |  | 
Cc1ccc(C(=O)Nc2ccc(CN3CCN(C)CC3)c(C(F)(F)F)c2)cc1C#Cc1cnc(N)c2ccc(F)cc12 | 0.712 | 1.82 | 0.717 | 0.554 | 3.68 | 1.64 | 4.73 | 0.933 | 0.401 | 0.798 | 0.27 | 0.398 | 0.275 | 0.139 | 0.77 | 0.53 | 1.06 | 0.301 | 0.0791 | 0.377
C#C[C@]1(O)CC[C@H]2[C@@H]3CC=C4c5nc(Nc6ccccn6)sc5CC[C@]4(C)[C@H]3CC[C@@]21C | 11.1 | 4.18 | 2.13 | 9.16 | 5.98 | 0.602 | 9.14 | 4.05 | 10.2 | 5.13 | 1.94 | 0.482 | 0.541 | 2.16 | 1.81 | 0.182 | 1.72 | 1.81 | 1.37 | 1.95
COc1ccc(C2SC(N)=Nc3c2c(C)nn3C(=O)c2ccc(Cl)cc2)cc1OC (stereo not given) | > 10 | > 10 | > 10 | > 10 | > 10 | > 10 | > 10 | > 10 | > 10 | > 10 |  |  |  |  |  |  |  |  |  | 
COC1/C=C/OC2(C)Oc3c(C)c(O)c4c(c3C2=O)C(=O)C=C(NC(=O)/C(C)=C\C=C\C(C)C(OC=O)C(C)C(O)C(C)C(OC(C)=O)C1C)C4=O (stereo not given) | 39.7 | 6.4 | 38.2 | 33 | 11.6 | 24.2 | 25.8 | 18 | 21.5 | 35.4 |  |  |  |  |  |  |  |  |  | 
